ChEMBL document CHEMBL1671624, “Efficacy of quinoxaline-2-carboxylate 1,4-di-N-oxide derivatives in experimental tuberculosis” (Antimicrob Agents Chemother, 2008)
≈ marks a conversion by molar mass, not a printed value.

Legend:
[1] = test system: Mycobacterium tuberculosis; test: Ratio of EC50 to MIC for Mycobacterium tuberculosis; type: functional
[2] = test system: Mycobacterium tuberculosis; test: Antibacterial activity against Mycobacterium tuberculosis H37Rv by microplate Alamar Blue assay; type: functional
[3] = test system: Mycobacterium tuberculosis; test: Antibacterial activity against Mycobacterium tuberculosis by microplate Alamar Blue assay; type: functional
[4] = Selectivity index, ratio of EC50 for african green monkey Vero cells to MIC for Mycobacterium tuberculosis; type: functional
[5] = test system: Mycobacterium tuberculosis; test: Antibacterial activity against p-aminosalicylic acid-resistant Mycobacterium tuberculosis by microplate Alamar Blue assay; type: functional
[6] = test system: Mycobacterium tuberculosis; test: Antimicrobial activity against Mycobacterium tuberculosis Erdman by microplate Alamar Blue assay; type: functional
[7] = test system: Mycobacterium tuberculosis; test: Antibacterial activity against Mycobacterium tuberculosis Erdman infected in gamma interferon gene knockout C57BL/6 mouse assessed as bacterial load in lung at 300 mg/kg, po administered 18 days postinfection for 9 days measured on day 24 (Rvb= 4.47+/-0.12 log CFU); type: functional
Mus musculus [8] = test: Toxicity in C57BL/6 mouse assessed as acute reactions upto 1000 mg/kg, po; type: organism-based; parameters: dose 1000 mg/kg, route oral; details: in vivo
Mus musculus [9] = test: Toxicity in C57BL/6 mouse assessed as acute adverse effects upto 1000 mg/kg, po; type: organism-based; parameters: dose 1000 mg/kg, route oral; details: in vivo
[10] = test system: Mycobacterium tuberculosis; test: Antibacterial activity against Mycobacterium tuberculosis Erdman infected in gamma interferon gene knockout C57BL/6 mouse assessed as bacterial load in spleen at 300 mg/kg, po administered 18 days postinfection for 9 days measured on day 24 (Rvb= 6.57+/-0.17 log CFU); type: functional
Blood [11] = test: Drug level in C57BL/6 mouse blood at 300 mg/kg, po; type: ADME, organism-based; parameters: dose 300 mg/kg, route oral; details: in vivo
[12] = test system: Mycobacterium tuberculosis; test: Antibacterial activity against Mycobacterium tuberculosis Erdman infected in gamma interferon gene knockout C57BL/6 mouse assessed as log reduction in bacterial load in spleen at 100 mg/kg, po administered 18 days postinfection for 9 days measured on day 24 relative to control; type: functional
[13] = test system: Mycobacterium tuberculosis; test: Antibacterial activity against Mycobacterium tuberculosis Erdman infected in gamma interferon gene knockout C57BL/6 mouse assessed as log reduction in bacterial load in lung at 300 mg/kg, po administered 18 days postinfection for 9 days measured on day 24 relative to control; type: functional
[14] = test system: Mycobacterium tuberculosis; test: Antibacterial activity against Mycobacterium tuberculosis Erdman infected in gamma interferon gene knockout C57BL/6 mouse assessed as log reduction in bacterial load in lung at 25 mg/kg, po administered 18 days postinfection for 9 days measured on day 24 relative to control; type: functional
Mus musculus [15] = test: Toxicity in gamma interferon gene knockout C57BL/6 mouse infected with Mycobacterium tuberculosis Erdman assessed as with a hunched posture at 300 mg/kg, po administered 18 days postinfection for 9 days; type: organism-based; parameters: dose 300 mg/kg, route oral; details: in vivo
Blood [16] = test: Drug level in C57BL/6 mouse blood at 100 mg/kg, po; type: ADME, organism-based; parameters: dose 100 mg/kg, route oral; details: in vivo
Blood [17] = test: Drug level in C57BL/6 mouse blood at 25 mg/kg, po; type: ADME, organism-based; parameters: dose 25 mg/kg, route oral; details: in vivo
[18] = test system: Mycobacterium tuberculosis; test: Antibacterial activity against Mycobacterium tuberculosis H37Rv assessed as compound concentration required for 99.9% bacterial killing by microplate Alamar Blue assay; type: functional
[19] = test system: Mycobacterium tuberculosis; test: Antibacterial activity against Mycobacterium tuberculosis H37Rv under aerobic conditions; type: functional
[20] = Cmax in C57BL/6 mouse serum after 15 to 30 mins at 100 to 200 mg/kg, po; type: ADME, organism-based; parameters: dose 100-200 mg/kg, route oral
[21] = test system: Mycobacterium tuberculosis; test: Antibacterial activity against Mycobacterium tuberculosis Erdman infected in gamma interferon gene knockout C57BL/6 mouse assessed as log reduction in bacterial load in spleen at 300 mg/kg, po administered 18 days postinfection for 9 days measured on day 24 relative to control; type: functional
[22] = Terminal half life in C57BL/6 mouse; type: ADME, organism-based; details: in vivo, read-out: beta t1/2 (converted)
[23] = test system: Mycobacterium tuberculosis; test: Antibacterial activity against Mycobacterium tuberculosis Erdman infected in gamma interferon gene knockout C57BL/6 mouse assessed as log reduction in bacterial load in spleen at 25 mg/kg, po administered 18 days postinfection for 9 days measured on day 24 relative to control; type: functional
[24] = test system: Mycobacterium tuberculosis; test: Antibacterial activity against Mycobacterium tuberculosis Erdman infected in gamma interferon gene knockout C57BL/6 mouse assessed as log reduction in bacterial load in lung at 100 mg/kg, po administered 18 days postinfection for 9 days measured on day 24 relative to control; type: functional
Mus musculus [25] = test: Toxicity in gamma interferon gene knockout C57BL/6 mouse infected with Mycobacterium tuberculosis Erdman assessed as lethargic at 300 mg/kg, po administered 18 days postinfection for 9 days; type: organism-based; parameters: dose 300 mg/kg, route oral; details: in vivo
[26] = test system: Mycobacterium tuberculosis; test: Ratio of […] for Mycobacterium tuberculosis H37Rv; type: functional
[27] = test system: Mycobacterium tuberculosis; test: Antibacterial activity against Mycobacterium tuberculosis H37Rv under anaerobic conditions by luciferase based low oxygen recovery assay; type: functional
[28] = test system: Mycobacterium tuberculosis; test: Antibacterial activity against Mycobacterium tuberculosis Erdman infected in gamma interferon gene knockout C57BL/6 mouse assessed as bacterial load in lung at 25 mg/kg, po administered 18 days postinfection for 9 days measured on day 24 (Rvb= 4.47+/-0.12 log CFU); type: functional
[29] = test system: Mycobacterium tuberculosis; test: Antibacterial activity against Mycobacterium tuberculosis Erdman infected in gamma interferon gene knockout C57BL/6 mouse assessed as bacterial load in spleen at 25 mg/kg, po administered 18 days postinfection for 9 days measured on day 24 (Rvb= 6.57+/-0.17 log CFU); type: functional

Row | Structure (SMILES) | Ratio [1] | MIC [2] [µg/mL] | MIC [3] [µg/mL] | Selectivity Index [4] | MIC [5] [µg/mL] | MIC [6] [µg/mL] | log10cfu [7] | Activity (Mus musculus [8]) | Activity (Mus musculus [9]) | log10cfu [10] | other results
1 | CCOC(=O)c1c(C)[n+]([O-])c2cc(C)c(C)cc2[n+]1[O-] | 0.46 | ≤ 3.13 | 6.25 (≈ 22.6 µM) | >10 | – | – | – | – | – | – | –
2 | CCOC(=O)c1c(C)[n+]([O-])c2ccc(C)cc2[n+]1[O-] | 1.4 | 3.13 (≈ 11.9 µM) | 1.56 (≈ 5.95 µM) | >40.06 | 3.13 (≈ 11.9 µM) | – | – | – | – | – | –
3 | CCOC(=O)c1c(C)[n+]([O-])c2ccccc2[n+]1[O-] | 0.56 | 1.56 (≈ 6.28 µM) | 1.56 (≈ 6.28 µM) | 30.13 | – | – | – | – | – | – | –
4 | CCOC(=O)c1c(C)[n+]([O-])c2cc(Cl)c(Cl)cc2[n+]1[O-] | >3.15 | 0.2 (≈ 0.631 µM) | 0.2 (≈ 0.631 µM) | >20 | – | 0.39 (≈ 1.23 µM) | 7.64 | Non-toxic | Non-toxic | 6.75 | –
5 | COCCOC(=O)c1c(C)[n+]([O-])c2cc(Cl)c(Cl)cc2[n+]1[O-] | >4 | ≤ 0.2 | 0.39 (≈ 1.12 µM) | 11.54 | 0.78 (≈ 2.25 µM) | 0.39 (≈ 1.12 µM) | 8.73 | Non-toxic | Non-toxic | 7.18 | –
6 | Cc1ccc2c(c1)[n+]([O-])c(C(=O)OCc1ccccc1)c(C)[n+]2[O-] | 2.9 | 0.39 (≈ 1.2 µM) | 0.39 (≈ 1.2 µM) | 143.7 | 0.78 (≈ 2.4 µM) | 0.78 (≈ 2.4 µM) | 7.17 | Non-toxic | Non-toxic | 6.63 | –
7 | Cc1c(C(=O)OCc2ccccc2)[n+]([O-])c2ccccc2[n+]1[O-] | 1.5 | 0.2 (≈ 0.645 µM) | 0.1 (≈ 0.322 µM) | 470 | 0.2 (≈ 0.645 µM) | 0.1 (≈ 0.322 µM) | 7.41 | Non-toxic | Non-toxic | 6.96 | –
8 | Cc1c(C(=O)OCc2ccccc2)[n+]([O-])c2cc(Cl)c(Cl)cc2[n+]1[O-] | 14.35 | 0.39 (≈ 1.03 µM) | 0.2 (≈ 0.527 µM) | 29 | – | 0.1 (≈ 0.264 µM) | 8.07 | Non-toxic | Non-toxic | 7.17 | –
9 | COC(=O)c1c(C)[n+]([O-])c2ccc(C)cc2[n+]1[O-] | 1.24 | 3.13 (≈ 12.6 µM) | 1.56 (≈ 6.28 µM) | >40.06 | 3.13 (≈ 12.6 µM) | – | – | – | – | – | –
10 | COC(=O)c1c(C)[n+]([O-])c2cc(C)c(C)cc2[n+]1[O-] | 0.52 | 3.13 (≈ 11.9 µM) | 3.13 (≈ 11.9 µM) | >20 | 3.13 (≈ 11.9 µM) | – | – | – | – | – | –
11 | CCOC(=O)c1c(C)[n+]([O-])c2ccc(Cl)cc2[n+]1[O-] | 2.3 | 0.2 (≈ 0.708 µM) | 0.2 (≈ 0.708 µM) | >50 | – | 0.78 (≈ 2.76 µM) | 4.55 | Non-toxic | Non-toxic | 3.95 | Drug uptake (Blood [11]): 9 µg/mL; log10cfu [12]: 2.72; log10cfu [13]: 5.58; log10cfu [14]: 0.99; Activity (Mus musculus [15]): Toxic; Drug uptake (Blood [16]): 6 µg/mL; Drug uptake (Blood [17]): 3 µg/mL; MBC [18]: 2.5 µg/mL (≈ 8.84 µM); MIC [19]: 0.24 µg/mL (≈ 0.849 µM); Cmax [20]: 5000 ng/mL; log10cfu [21]: 5.51; half-life [22]: 240 min; log10cfu [23]: 1.61; log10cfu [24]: 2.03; Activity (Mus musculus [25]): Toxic; Ratio [26]: 4.2; MIC [27]: 0.42 µg/mL (≈ 1.49 µM)
12 | Cc1c(C(=O)OCc2ccccc2)[n+]([O-])c2cc(Cl)ccc2[n+]1[O-] | 0.01 | – | 0.1 (≈ 0.29 µM) | 76.9 | – | 0.1 (≈ 0.29 µM) | 7.21 | Non-toxic | Non-toxic | 6.62 | –
13 | NNC(=O)c1ccncc1 [ISONIAZID] | – | – | – | – | – | – | – | – | – | – | log10cfu [14]: 3.33; log10cfu [28]: 4.47; log10cfu [29]: 2.2; log10cfu [23]: 5.04
14 | O=C(Nc1ccc([N+](=O)[O-])cc1Cl)c1cc(Cl)ccc1O [NICLOSAMIDE] | – | – | – | – | – | – | – | – | – | – | MIC [19]: 0.28 µg/mL (≈ 0.856 µM); MIC [27]: 0.32 µg/mL (≈ 0.978 µM)
15 | O=[N+]([O-])c1cn2c(n1)OC[C@@H](OCc1ccc(OC(F)(F)F)cc1)C2 [PRETOMANID] | – | – | – | – | – | – | – | – | – | – | MIC [19]: 0.1 µg/mL (≈ 0.278 µM); MIC [27]: 1.4 µg/mL (≈ 3.9 µM)
